Results published in patent publication US20220390435A1, “COMPOSITIONS FOR PATIENT SPECIFIC IMMUNOTHERAPY” (VITROSCAN B.V., priority 2019, published 2022).

Tests used:
Assay type in all cases: cell-based, human
[1] = tested on: ovarian cancer tumoroids; experiment: ex vivo 3D patient-derived tumour culture with 3D imaging, ovarian cancer samples; conditions: for area size of small objects (smaller than 160 μm^2, immune cells): same ovarian tumour sample as FIG. 4, FIG. 5
[2] = tested on: patient derived tumour cell aggregates; experiment: Selection Factor (tumoroids' area decrease) across patient samples; conditions: for immune reaction reducing the number of tumour cells (Selection Factor across samples): FIGS. 8 and 9, alone or in combination, immune system of a naïve patient sample only
[3] = tested on: lung tumour sample; experiment: ex vivo 3D patient-derived tumour culture with 3D imaging, lung tumour sample; conditions: FIG. 6
[4] = tested on: IFN-γ; experiment: IFN-γ production in treated patient-derived cultures; conditions: FIG. 7; IFN-γ is secreted by activated T-cells
[5] = tested on: Mesothelioma tumour sample; experiment: ex vivo 3D patient-derived tumour culture with 3D imaging, mesothelioma sample; conditions: FIG. 3

Nc1ncnc2c1ncn2[C@@H]1O[C@@H]2COP(=O)([S-])O[C@@H]3[C@H](O)[C@@H](COP([O-])(=S)O[C@H]2[C@H]1O)O[C@H]3n1cnc2c(N)ncnc21.[Na+].[Na+] (stereo partly shown) [ADU-S100]
area size of small objects (smaller than 160 μm^2, immune cells) [1]: area size increase of small objects

O=C(c1cc(Cc2n[nH]c(=O)c3ccccc23)ccc1F)N1CCN(C(=O)C2CC2)CC1 [olaparib]
immune reaction reducing the number of tumour cells (Selection Factor across samples) [2]: able to start an immune reaction that effectively reduced the number of tumour cells

ipilimumab
killing effect in a lung cancer tumour sample [3]: killing effect in a lung cancer tumour sample
immune reaction reducing the number of tumour cells (Selection Factor across samples) [2]: able to start an immune reaction that effectively reduced the number of tumour cells
in-vitro Selection Factor ([2]; subset of patients that benefit from treatment): below −30%
activating native immune cells to kill ovarian cancer tumoroids (total area of objects larger than 422 μm^2 / smaller than 160 μm^2) ([1]; ovarian cancer samples of FIG. 1): showed effectiveness in activating immune cells
activating native immune cells to kill tumoroids ([1]; ovarian cancer samples of FIG. 2): does not show effectiveness
IFN-γ production [4]: increased
immune-mediated tumoroid killing effect [5]: showing immune-mediated tumoroid killing effect

nivolumab
killing effect in a lung cancer tumour sample [3]: killing effect in a lung cancer tumour sample

pembrolizumab
killing effect in a lung cancer tumour sample [3]: killing effect in a lung cancer tumour sample
killing effect, i.e. area size reduction of tumoroid clusters ([1]; ovarian tumour sample, FIG. 4): killing effect, i.e. area size reduction of tumoroid clusters
area size of small objects (smaller than 160 μm^2, immune cells) [1]: area size increase of small objects
